Patent US9492437B2, “Otamixaban for treatment of elderly and renal impaired non-ST elevation myocardial infarction patients” (SANOFI, priority 2009, dated 2016)

Legend:
[1] = system: patients with Unstable angina/Non ST segment Elevation Myocardial infarction; test: randomized, double-blind triple-dummy trial, efficacy (endpoint of the study: all-cause death and new myocardial infarction); assay type: in vivo, human
From the text: The following results are based on a randomized, double-blind triple-dummy trial to compare otamixaban to Unfractionated Heparin+eptifibatide, in patients with Unstable angina/Non ST segment Elevation Myocardial infarction scheduled to undergo an early invasive strategy.
Patient with non STE-segment elevation Acute Coronary Syndrome with the following symptoms: […]
UFH: 60 IU/Kg as IV bolus ([…]) followed by an IV infusion of 12 U/Kg/h (max 1000 IU/h) to maintain a PTT at 1.5 to 2.0 times control and at the time of the PCI additional boluses needed if the ACT is not in the range of 200-250 seconds. NB: In order for the study to be blinded, all aPTTs and ACTs performed in order to adjust Drug B (UFH/placebo) dosing will be performed using an encrypted Hemochron Signature Elite machine (or as a back-up, a local device with a third-party unblinded healthcare professional).
Eptifibatide: a single bolus of 180 mcg/kg followed by an infusion of 2 mcg/kg/min. In patients with CrCl<50 mL/min the infusion rate will be decreased to 1 mcg/kg/min.
Primary endpoint: Adjudicated composite of all-cause death and new myocardial infarction (MI) within 7 days following randomization
The events will be adjudicated by a blinded independent adjudication committee. Since the goal of treating acute ACS without persistent ST segment elevation is to prevent associated morbidity and mortality, death and myocardial infarction are considered to be the clinically most meaningful endpoints in therapeutic studies, whereas recurrent ischemia or refractory angina is of more uncertain clinical relevance (EMEA/CPCP/EWP/570/98; February 2008).
The primary endpoint has been defined as the double clinical efficacy endpoint (all cause death and Myocardial Infarction based on centrally adjudicated data) that will be assessed at Day 7. Further estimation of this endpoint will be done at Day 30, Day 90 and Day 180 (end of the follow up) to check persistence of effect as recommended by the EMEA guideline (EMEA/CPCP/EWP/570/98; February 2008).
Myocardial Infarction is considered to be a hard component of a combined efficacy endpoint for confirmatory clinical trials. The definition of Myocardial Infarction will be based on ACC/AHA, ESC and WHF consensus (J Am Coll Cardiol, 2007; 50:2173-2195; Eur Heart J, 2007, 28: 2525-2538): […]

acute coronary syndrome = settings: cited from earlier work
[2] = age 65 to 75 years, Ota. infusion 0.035 mg/Kg/h
[3] = age 65 to 75 years, Ota. infusion 0.070 mg/Kg/h
[4] = age 65 to 75 years, Ota. infusion 0.105 mg/Kg/h
[5] = age 65 to 75 years, Ota. infusion 0.140 mg/Kg/h
[6] = age 65 to 75 years, Ota. infusion 0.175 mg/Kg/h
[7] = age <65 years, Ota. infusion 0.035 mg/Kg/h
[8] = age <65 years, Ota. infusion 0.070 mg/Kg/h
[9] = age <65 years, Ota. infusion 0.105 mg/Kg/h
[10] = age <65 years, Ota. infusion 0.140 mg/Kg/h
[11] = age <65 years, Ota. infusion 0.175 mg/Kg/h
[12] = age older than 75 years, Ota. infusion 0.035 mg/Kg/h
[13] = age older than 75 years, Ota. infusion 0.070 mg/Kg/h
[14] = age older than 75 years, Ota. infusion 0.105 mg/Kg/h
[15] = age older than 75 years, Ota. infusion 0.140 mg/Kg/h
[16] = age older than 75 years, Ota. infusion 0.175 mg/Kg/h
[17] = creatinine clearance 30 to 50 ml/min, Ota. infusion 0.070 mg/Kg/h
[18] = creatinine clearance 30 to 50 ml/min, Ota. infusion 0.105 mg/Kg/h
[19] = creatinine clearance 30 to 50 ml/min, Ota. infusion 0.140 mg/Kg/h
[20] = creatinine clearance 30 to 50 ml/min, Ota. infusion 0.175 mg/Kg/h
[21] = creatinine clearance 50 to 80 ml/min, Ota. infusion 0.035 mg/Kg/h
[22] = creatinine clearance 50 to 80 ml/min, Ota. infusion 0.070 mg/Kg/h
[23] = creatinine clearance 50 to 80 ml/min, Ota. infusion 0.105 mg/Kg/h
[24] = creatinine clearance 50 to 80 ml/min, Ota. infusion 0.140 mg/Kg/h
[25] = creatinine clearance 50 to 80 ml/min, Ota. infusion 0.175 mg/Kg/h
[26] = creatinine clearance <30 ml/min, Ota. infusion 0.140 mg/Kg/h
[27] = creatinine clearance more than 80 ml/min, Ota. infusion 0.035 mg/Kg/h
[28] = creatinine clearance more than 80 ml/min, Ota. infusion 0.070 mg/Kg/h
[29] = creatinine clearance more than 80 ml/min, Ota. infusion 0.105 mg/Kg/h
[30] = creatinine clearance more than 80 ml/min, Ota. infusion 0.140 mg/Kg/h
[31] = creatinine clearance more than 80 ml/min, Ota. infusion 0.175 mg/Kg/h
[32] = dose arms from 0.105 to 0.175 mg/Kg/h (dose arm 3 to 5)

COC(=O)C(Cc1cccc(C(=N)N)c1)[C@@H](C)NC(=O)c1ccc(-c2cc[n+]([O-])cc2)cc1 (mixture of isomers) [Otamixaban, (2R,3R)-2-(3-Carbamimidoyl-benzyl)-3-[4-(1-oxy-pyridin-4-yl)benzoylamino]-butyric acid methyl ester]
patients who showed the endpoint of the study / patients in the group [1, 2]: 2/33 | patients with endpoint in comparison with the whole number of patients in the group [1, 2]: (6.1%) | patients who showed the endpoint of the study / patients in the group [1, 3]: 11/186 | patients with endpoint in comparison with the whole number of patients in the group [1, 3]: (5.9%) | patients who showed the endpoint of the study / patients in the group [1, 4]: 11/170 | patients with endpoint in comparison with the whole number of patients in the group [1, 4]: (6.5%) | patients who showed the endpoint of the study / patients in the group [1, 5]: 9/182 | patients with endpoint in comparison with the whole number of patients in the group [1, 5]: (4.9%) | patients who showed the endpoint of the study / patients in the group [1, 6]: 7/164 | patients with endpoint in comparison with the whole number of patients in the group [1, 6]: (4.3%) | patients who showed the endpoint of the study / patients in the group [1, 7]: 5/74 | patients with endpoint in comparison with the whole number of patients in the group [1, 7]: (6.8%) | patients who showed the endpoint of the study / patients in the group [1, 8]: 16/394 | patients with endpoint in comparison with the whole number of patients in the group [1, 8]: (4.1%) | patients who showed the endpoint of the study / patients in the group [1, 9]: 8/394 | patients with endpoint in comparison with the whole number of patients in the group [1, 9]: (2.0%) | patients who showed the endpoint of the study / patients in the group [1, 10]: 9/383 | patients with endpoint in comparison with the whole number of patients in the group [1, 10]: (2.3%) | patients who showed the endpoint of the study / patients in the group [1, 11]: 16/401 | patients with endpoint in comparison with the whole number of patients in the group [1, 11]: (4.0%) | patients who showed the endpoint of the study / patients in the group [1, 12]: 2/18 | patients with endpoint in comparison with the whole number of patients in the group [1, 12]: (11.1%) | patients who showed the endpoint of the study / patients in the group [1, 13]: 4/96 | patients with endpoint in comparison with the whole number of patients in the group [1, 13]: (4.2%) | patients who showed the endpoint of the study / patients in the group [1, 14]: 6/98 | patients with endpoint in comparison with the whole number of patients in the group [1, 14]: (6.1%) | patients who showed the endpoint of the study / patients in the group [1, 15]: 6/93 | patients with endpoint in comparison with the whole number of patients in the group [1, 15]: (6.5%) | patients who showed the endpoint of the study / patients in the group [1, 16]: 6/106 | patients with endpoint in comparison with the whole number of patients in the group [1, 16]: (5.7%) | patients who showed the endpoint of the study / patients in the group ([1]; creatinine clearance 30 to 50 ml/min, Ota. infusion 0.035 mg/Kg/h): 0/7 | patients who showed the endpoint of the study / patients in the group [1, 17]: 5/54 | patients with endpoint in comparison with the whole number of patients in the group [1, 17]: (9.3%) | patients who showed the endpoint of the study / patients in the group [1, 18]: 8/46 | patients with endpoint in comparison with the whole number of patients in the group [1, 18]: (17.4%) | patients who showed the endpoint of the study / patients in the group [1, 19]: 4/46 | patients with endpoint in comparison with the whole number of patients in the group [1, 19]: (8.7%) | patients who showed the endpoint of the study / patients in the group [1, 20]: 3/48 | patients with endpoint in comparison with the whole number of patients in the group [1, 20]: (6.3%) | patients who showed the endpoint of the study / patients in the group [1, 21]: 5/29 | patients with endpoint in comparison with the whole number of patients in the group [1, 21]: (17.2%) | patients who showed the endpoint of the study / patients in the group [1, 22]: 9/188 | patients with endpoint in comparison with the whole number of patients in the group [1, 22]: (4.8%) | patients who showed the endpoint of the study / patients in the group [1, 23]: 5/189 | patients with endpoint in comparison with the whole number of patients in the group [1, 23]: (2.6%) | patients who showed the endpoint of the study / patients in the group [1, 24]: 6/192 | patients with endpoint in comparison with the whole number of patients in the group [1, 24]: (3.1%) | patients who showed the endpoint of the study / patients in the group [1, 25]: 8/178 | patients with endpoint in comparison with the whole number of patients in the group [1, 25]: (4.5%) | patients who showed the endpoint of the study / patients in the group ([1]; creatinine clearance <30 ml/min, Ota. infusion 0.035 mg/Kg/h): 0/2 | patients who showed the endpoint of the study / patients in the group ([1]; creatinine clearance <30 ml/min, Ota. infusion 0.070 mg/Kg/h): 0/2 | patients who showed the endpoint of the study / patients in the group ([1]; creatinine clearance <30 ml/min, Ota. infusion 0.105 mg/Kg/h): 0/0 | patients who showed the endpoint of the study / patients in the group [1, 26]: 3/4 | patients with endpoint in comparison with the whole number of patients in the group [1, 26]: 75.0% | patients who showed the endpoint of the study / patients in the group ([1]; creatinine clearance <30 ml/min, Ota. infusion 0.175 mg/Kg/h): 0/3 | patients who showed the endpoint of the study / patients in the group [1, 27]: 3/79 | patients with endpoint in comparison with the whole number of patients in the group [1, 27]: (3.8%) | patients who showed the endpoint of the study / patients in the group [1, 28]: 14/382 | patients with endpoint in comparison with the whole number of patients in the group [1, 28]: (3.7%) | patients who showed the endpoint of the study / patients in the group [1, 29]: 10/378 | patients with endpoint in comparison with the whole number of patients in the group [1, 29]: (2.6%) | patients who showed the endpoint of the study / patients in the group [1, 30]: 9/372 | patients with endpoint in comparison with the whole number of patients in the group [1, 30]: (2.4%) | patients who showed the endpoint of the study / patients in the group [1, 31]: 14/392 | patients with endpoint in comparison with the whole number of patients in the group [1, 31]: (3.6%) | subgroup analysis of clinical results (age, gender, creatinine clearance, body weight, management of the acute coronary syndrome) ([1]; demographic subgroups, baseline characteristics, invasive or medical management): consistency of the clinical results | anticoagulation based on rates of bailout and thrombotic complications ([1]; dose arms 0.035 mg/Kg/h and 0.070 mg/Kg/h (dose arms 1 and 2)): inadequate anticoagulation | effect on urgent revascularization or need for bailout [1, 32]: no demonstrable effect | rates of primary endpoint lower than UFH+Eptifibatide [1, 32]: 31-41% | efficacy, safety and tolerability in humans (acute coronary syndrome): efficacious, safe and well tolerated
